Results on one compound are retold here after patent US6958231B2, “Variants of Erwinia-type creatinase” (Roche Diagnostics Operations, Inc., priority 2001, dated 2005).

For experiment [1], the target named is T1, Erwinia sp. (DSM 97-934) creatinase variant CTsd7, F59W, N130D, M203V, I278T, F395L, SEQ ID NO: 22 (Shinella sumterensis, UniProt A0AA50CTE0, F395L/F59W/I278T/M203V/N130D).
T1 construct: variant CTsd7
T1 sequence (A0AA50CTE0 1-404 F59W/N130D/M203V/I278T/F395L): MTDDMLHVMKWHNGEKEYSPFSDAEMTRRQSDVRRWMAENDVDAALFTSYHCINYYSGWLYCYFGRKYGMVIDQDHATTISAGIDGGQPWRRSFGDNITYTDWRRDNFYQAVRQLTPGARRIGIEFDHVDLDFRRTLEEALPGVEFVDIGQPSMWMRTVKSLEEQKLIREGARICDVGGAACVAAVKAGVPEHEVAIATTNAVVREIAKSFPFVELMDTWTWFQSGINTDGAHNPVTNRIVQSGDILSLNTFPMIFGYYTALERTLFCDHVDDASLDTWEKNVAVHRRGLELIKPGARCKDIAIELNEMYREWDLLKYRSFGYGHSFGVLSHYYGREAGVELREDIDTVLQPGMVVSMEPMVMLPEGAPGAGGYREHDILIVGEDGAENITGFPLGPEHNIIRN
Nature of the experiment: Km determination of creatinase variant with creatine (coupled enzymatic assay). Type of experiment: biochemical. As to conditions: in words, CTsd7 vs wild type Erwinia creatinase. The method, then:
(§1) The activity assay for creatinase and its variants was performed by using creatine as substrate and a coupled enzymatic reaction according to Guder, W. G., et al., J Clin Chem Clin Biochem 24 (1986) 889-902.
(§2) The reaction mixture was set up by combining the following reagents:
(§3) The assay for creatinase was carried out at 25° C. and at the wavelength of 546 nm for 10 min. ΔE was calculated from the measurement points of 6 to 10 min.
(§4) For KM determination, creatinase activity was determined according to the assay procedure described in Example 3 using six different concentrations of creatine substrate: 90 mM, 45 mM, 22.5 mM, 11.3 mM, 5.6 miM and 2.8 mM.

For experiment [2], the target named is T2, Erwinia sp. (DSM 97-934) creatinase variant CTsd2, N130D, M203V, I278T, F395L, SEQ ID NO: 20 (Shinella sumterensis, UniProt A0AA50CTE0, F395L/I278T/M203V/N130D).
T2 construct: variant CTsd2
T2 sequence (A0AA50CTE0 1-404 N130D/M203V/I278T/F395L): T1 sequence (A0AA50CTE0 1-404 F59W/N130D/M203V/I278T/F395L) with W59F
The experiment is described as above. It counts as biochemical. Particulars: in words, CTsd2 vs wild type Erwinia creatinase. On the procedure:
as §1, §2, §3, §4

Experiment [3] relates to creatinase from Pseudomonas putida. As to conditions: in words; cited from earlier work.

Numbering of substitutions follows the chain as printed.

As for `CN(CC(=O)O)C(=N)N` [creatine], the “Km value compared to wild type” value in experiment [1] and in experiment [2] was “much lower” in each case. Besides, the Km value entry in experiment [3] is listed as “rather high”.
